Reference: US20140363438A1, “NEUREGULIN ANTIBODIES AND USES THEREOF” (Genentech, Inc., priority 2011, published 2014)
Each block holds one molecule with its values, some of them ahead of it.

What was measured:
[1] = tested on: Calu3-shHER3 xenograft tumors; experiment: Calu3-shHER3 xenograft; format: in vivo, human; details: Calu3-shHER3, dox 2 gm/L in drinking water
Method: To confirm this role in vivo, studies using Calu3-shHER3 and Calu3-shHER4 xenograft models treated with either sucrose or dox were performed. Mice with established Calu3-shHER3 or Calu3-shHer4 xenograft tumors were administered vehicle (sucrose) or dox (2 gm/L) in their drinking water ad libitum (n=14/group).

[2] = tested on: lung tumors of LSL-K-rasG12D;p53Fl/Fl mice; experiment: Lung tumor burden by micro-CT in LSL-K-rasG12D;p53Fl/Fl mice; format: in vivo, mouse; details: FIG. 3C
Method: LSL-K-ras^G12D;p53^F1/+ were infected with Adeno-Cre virus and allowed to age for 16 weeks post-tumor induction. Baseline CT scans were performed at 16 weeks post-tumor induction (day 0 of study) and mice were grouped such that average starting tumor volume per group were equal. Mice were dosed once a week for three weeks with cisplatin (7 mg/kg) or phosphate-buffered saline, and bi-weekly with HER4ECD-Fc (25 mg/kg) or anti-ragweed IgG2A (25 mg/kg) for the duration of the study. Serial CT scans were performed at days 14, 45, and 66.
Two micro-CT systems (vivaCT 40 and vivaCT 75, Scanco Medical, Switzerland) were utilized for longitudinal lung imaging. Animals were randomized between micro-CT systems and rescanned on the same system used for baseline imaging. […] The imaging data were evaluated in the coronal plane using the image analysis software package Analyze (AnalyzeDirect, Inc., Lenexa, Kans., USA). Once the largest cross-sectional plane of each tumor was identified, estimates of maximal tumor diameter (d1) and the largest perpendicular diameter (d2) were determined. The total tumor burden was calculated as the sum of the cross-product of the directional estimates (d1×d2) of all the tumors.
A second study was carried out in LSL-K-ras^G12D;p53^F1/F1 mice as described above. […] Combination activity was assessed using an unpaired t-test against its monotherapy * p<0.05, ** p<0.01.

[3] = tested on: NRG1/HER3 signaling; experiment: HER4-ECD on serum starved LKPH1 and LKPH2 cells, p-HER3 Western blot; format: cell-based, mouse
Method: To induce shRNA expression, stable cell lines harboring doxcycline-inducible shNRG1 or shLuciferase were grown in 1 ug/ml doxcycline for a total of 6 days. The first day of induction cells were grown in 10% FBS, followed by a titration of FBS over the course of 4 more days. The cells were then completely serum starved during the last 6 hours of growth. Cells were then processed for RNA extraction or western blotting. For HER4ECD studies in mouse lung tumor cell lines, LKPH cells were grown in serum starved conditions for 24 hours prior to addition of HER4ECD at a concentration of 2 mg/ml. LKPH cells were then incubated for another 48 hours prior to processing for Western blotting. Addition of exogenous NRG1 on H441 cells were performed as follows: H441 cells were serum starved for 18 hours prior to addition of 1 uM recombinant human NRG1 beta-1 extracellular domain (R&D systems) or 1 uM anti-ragweed IgG2A as the control. Ten minutes after addition of NRG1 or ragweed, cells were processed for Western blotting.
To test the role of NRG1 signaling in promoting relapse after chemotherapy in the LSL-K-ras^G12D;p53^F1/+ mouse model, a ligand-trap approach to sequester NRG1 and prevent its binding to receptors in vivo was employed. A fusion of the human HER4 extracellular domain (HER4-ECD) fused to murine IgG2A Fc was generated. […]

[4] = tested on: HRG1β; experiment: Competition assay with 538.24.17 for HRG1β; format: binding; details: FIG. 12
Method: (§1) A competition assay was performed to determine the binding specificity of the 526.09 and 526.02 antibodies.

[5] = biological target: T1, NRG1β (Homo sapiens, UniProt Q02297); experiment: Inhibition of 125I-HRG (NRG1β) binding to HER3-ECD-Fc; details: parental anti-NRG1 antibodies, FIG. 6
T1 sequence (Q02297 177-244 isoform Q02297-6 limits assumed): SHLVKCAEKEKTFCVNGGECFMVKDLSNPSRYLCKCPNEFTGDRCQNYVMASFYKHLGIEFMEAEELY
Method: The antibodies were tested for their ability to inhibit NRG1β binding to HER3-Fc. 125I-HRG was generated at Genentech as described previously (Sliwkowski et al JBC 1994). Binding assays were performed in Nunc break-apart strip wells (Thermo-Fisher Scientific, Rochester, N.Y.). Plates were coated at 4° C. overnight with 250 ng/well of HER3-ECD-Fc fusion protein in carbonate buffer (pH 9.6). Plates were rinsed twice with wash buffer (PBS/0.05% Tween 20) and blocked with 100 μL PBS including 1% bovine serum albumin (BSA) for 30 minutes. Increasing concentrations of anti-NRG1 antibodies in RPMI 1640 medium (Invitrogen; Carlsbad, Calif.) with 0.2% BSA were pre-bound to HER3-ECD-Fc. 125I-HRG (specific activity: 266 mCi/mg, 75,000 cpm/well) was added immediately after in a total assay volume of 130 μL. Plates were incubated for 2 hours at room temperature, rinsed twice, and individual wells were counted using a 100 Series Iso Data γ-counter. Samples were assayed in triplicates. Plotting was performed using KaleidaGraph 3.6 software. […]
The affinity matured variants were tested for their ability to block HRGβ binding to HER3-Fc. […] Plates were incubated for 2 hours at room temperature, rinsed twice, and individual wells were counted using a 100 Series Iso Data γ-counter. […]

[6] = biological target: T2, HRG1a (Homo sapiens, UniProt Q02297); experiment: Competition assay with 538.24.17 for HRG1a; format: binding; details: FIG. 12
T2 sequence (Q02297 177-241): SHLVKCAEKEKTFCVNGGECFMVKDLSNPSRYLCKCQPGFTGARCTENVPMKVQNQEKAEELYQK
Method: as §1

Molecule: C[C@H]1c2cccc(O)c2C(=O)C2=C(O)[C@]3(O)C(=O)C(C(N)=O)=C(O)[C@@H](N(C)C)[C@@H]3[C@@H](O)[C@@H]21 [dox, doxycycline]
tumor volume doubling time (TDT) [1]: 19 days

Molecule: HER4-ECD: fusion of the human HER4 extracellular domain to murine IgG2A Fc, ligand trap to sequester NRG1
tumor burden by micro-CT on day 28 [2]: no effect
p-HER3 levels [3]: diminished

dose-dependent inhibition of NRGβ binding to HER3-Fc [5]: most potent blockers
competition with 538.24.17 for HRG1a [6]: competes
B1: 526.90: parental anti-NRG1 antibody; VH SEQ ID NO: 52, VL SEQ ID NO: 53 (antibody, V domains shown)
VH: EVQLVESGGGLVQPGGSLRLSCAASGFTFSGNAMSWVRQAPGKGLEWVSWIYPSGGNTYYADSVKGRFTISADTSKNTAYLQMNSLRAEDTAVYYCARSYILSYPSITWAFDYWGQGTLVTVSS
VL: DIQMTQSPSSLSASVGDRVTITCRASQSISSYLAWYQQKPGKAPKLLIYGASSRASGVPSRFSGSGSGTDFTLTISSLQPEDFATYYCQQSYSTPITFGQGTKVEIKR
modifications: Heavy chain variable region; Light chain variable region
competition with 538.24.17 for HRG1β [4]: competes
